Experimental data taken from patent US20080187490A1, “Methods for Treating Amyotrophic Lateral Sclerosis” (priority 2005, published 2008).
No end group written: not given here.

B1: Peptide … (SEQ ID NO:14) (peptide)
peptide: APPCARHLGELVWCT
modifications: not fully specified; cysteine pairing not given here
B2: Peptide … (SEQ ID NO:3) (peptide)
peptide: DCAFHLGELVWCT
B3: Peptide … (SEQ ID NO:16) (peptide)
peptide: APPDCAWHLGELVWCT
B4: Peptide … (SEQ ID NO:15) (peptide)
peptide: APPCAFHLGELVWCT
modifications: not fully specified; cysteine pairing not given here
B5: Peptide … (SEQ ID NO:13) (peptide)
peptide: APPCAWHLGELVWCT
modifications: not fully specified; cysteine pairing not given here

Assays:
FcγIII = test: Reverse ELISA: inhibition of PAP immune complex binding to FcγIII coated plates; conditions: PAP pre-incubated with peptide one hour; lower OD = more inhibition; positive control 1.588
From the text: (§1) For this reason, a “reverse ELISA” technique was used to assess binding of the Fc region to ligands that bind to immune complexed IgG Fc. In a reverse ELISA, the enzyme (e.g., HRP) is not covalently conjugated to the Fc portion of the secondary antibody. Rather, a preformed immune complex of peroxidase-rabbit (or mouse) anti-peroxidase IgG (“PAP” complex) is used. […] In these experiments, an Fe CH2-CH3 cleft binding ligand (e.g., purified human C1q) was bound to microwell plates. In the absence of competitor, PAP complexes bound to the immobilized ligand and the reaction between HRP and its substrate produced a signal. This signal was reduced by polypeptides and compounds provided herein that inhibited PAP binding to the immobilized ligand.
(§2) Once the reverse ELISA protocol was established using the C1q assay, the assay was redesigned using FcγIIa, FcγIIb, and FcγIII in place of C1q. Highly purified FcγIIa, FcγIIb and FcγIII were immunoadsorbed onto plastic microwells. After optimizing the FcγR reverse ELISA system, simple competitive inhibition experiments using polypeptides provided herein were conducted to investigate their ability to inhibit binding of immune complexes to purified FcγR.
(§3) Falcon microtiter plates were coated with 1:10 dilutions of highly purified FcγIIa, FcγIIb and FcγIII and incubated for 24 hours. The plates were washed and then blocked with 5×BSA blocking solution (Alpha Diagnostic International, San Antonio, Tex.) for 24 hours. PAP immune complexes were formed as described above. PAP (100 μl) were pre-incubated with 100 μl of peptide for one hour. PAP/peptide mixtures were added to the FcγR coated plates and incubated for one hour. After washing, plates were incubated with ABTS substrate for 15 minutes and read at 405 nm.

FcγIIb = test: Reverse ELISA: inhibition of PAP immune complex binding to FcγIIb coated plates; conditions: PAP pre-incubated with peptide one hour; lower OD = more inhibition; positive control 1.394
From the text: as §1, §2, §3

FcγIIa = test: Reverse ELISA: inhibition of PAP immune complex binding to FcγIIa coated plates; conditions: PAP pre-incubated with peptide one hour; lower OD = more inhibition; positive control 1.599
From the text: as §1, §2, §3

human C1q = test: Reverse ELISA: inhibition of PAP immune complex binding to C1q coated plates; conditions: for OD 405 nm: PAP pre-incubated with peptide or C1q one hour, 30 min on C1q plates, lower OD = more inhibition, positive control 2.355; for inhibition of C1q binding (in words): ranking among peptides of Table 1
From the text: as §1
PAP complexes were formed mixing 2 μl of rabbit anti-peroxidase (Sigma Chemicals, St. Louis, Mo.) with 50 μl of peroxidase (Sigma-Aldrich, St. Louis, Mo.) in 1 ml distilled water. PAP (100 μl) were pre-incubated with 100 μl of peptide for one hour, 100 μl were pre-incubated with 100 μl of peptide or human C1q (Quidel Corp., San Diego, Calif.) for one hour. The C1q/PAP and peptide/PAP mixtures (100 μl) were incubated with C1q coated plates for 30 minutes. After washing, plates were incubated with ATBS (Quidel Corp.) for 15 minutes and read at 405 nm.

FcR = test: FcγR reverse ELISA, overall statement on FcR binding to PAP; conditions: ranking among peptides of Table 2
Experimental: as §2, §3

[1] = test system: apo monomeric mutant SOD1 C57S (mSOD1C57S); test: Reverse ELISA: inhibition of immune complexed IgG (PAP) binding to mSOD1C57S coated plates; conditions: for mSOD1C57S (OD read at 405 nm): PAP pre-incubated with peptide one hour, 60 min on plates, positive control […]; for inhibition of mSOD1C57S binding to PAP (in words): ranking among peptides of Table 3
Experimental: (§4) PAP complexes were prepared as described in Example 2. PAP (100 μl) were pre-incubated with 100 μl of peptide for one hour, and control (200 μl of PAP) also was incubated for one hour. 100 μl of either PAP or PAP/peptide was added to Falcon microtiter plates that had been coated for 24 hours with either 0.8 μg/ml human wtSOD1 (Sigma-Aldrich) or apo (non Cu, Zn containing) monomeric mutant SOD1 C57S (mSOD1C57S). The PAP or peptide/PAP mixtures (100 μl) were added after one hour to either wt SOD1 or mSOD1C57S coated plates for 60 minutes. After washing, plates were incubated with ATBS for 15 minutes and read at 405 nm.

human wtSOD1 = test: Reverse ELISA: inhibition of immune complexed IgG (PAP) binding to wt SOD1 coated plates; conditions: for wt SOD1 (OD read at 405 nm): PAP pre-incubated with peptide one hour, 60 min on plates, positive control 2.900; for inhibition of wt SOD1 binding to PAP (in words): ranking among peptides of Table 3
Experimental: as §4

IgG Fc = test: Alanine substitution, binding of SEQ ID NO:16 to IgG Fc; conditions: alanine substitution of IgG Fc Asn-434, His-435, or Tyr-436
FcγIII (highly purified) = test: reverse ELISA: PAP without competitor on FcγIII-coated plate
[2] = molecular target: human C1q (Quidel Corp.) (human) (UniProt P02745); test: reverse ELISA: PAP without competitor on C1q-coated plate
FcγIIb (highly purified) = test: reverse ELISA: PAP without competitor on FcγIIb-coated plate
FcγIIa (highly purified) = test: reverse ELISA: PAP without competitor on FcγIIa-coated plate
[3] = molecular target: preformed immune complex of peroxidase-rabbit anti-peroxidase IgG (PAP complex) (rabbit; horseradish) (UniProt P00433); test: competition reverse ELISA: PAP pre-incubated with peptide, residual PAP binding to C1q-coated plate (competitor: immobilized C1q)
[4] = molecular target: preformed immune complex of peroxidase-rabbit anti-peroxidase IgG (PAP complex) (rabbit; horseradish) (UniProt P00433); test: competition reverse ELISA: PAP pre-incubated with peptide, residual PAP binding to FcγIIb-coated plate (competitor: immobilized FcγIIb)
[5] = molecular target: preformed immune complex of peroxidase-rabbit anti-peroxidase IgG (PAP complex) (rabbit; horseradish) (UniProt P00433); test: competition reverse ELISA: PAP pre-incubated with peptide, residual PAP binding to FcγIIa-coated plate (competitor: immobilized FcγIIa)
[6] = molecular target: preformed immune complex of peroxidase-rabbit anti-peroxidase IgG (PAP complex) (rabbit; horseradish) (UniProt P00433); test: competition reverse ELISA: PAP pre-incubated with peptide, residual PAP binding to FcγIII-coated plate (competitor: immobilized FcγIII)
[7] = molecular target: preformed immune complex of peroxidase-rabbit anti-peroxidase IgG (PAP complex) (rabbit; horseradish) (UniProt P00433); test: competition reverse ELISA: PAP pre-incubated with peptide, residual PAP binding to mSOD1C57S-coated plate (competitor: immobilized mSOD1C57S)
[8] = molecular target: preformed immune complex of peroxidase-rabbit anti-peroxidase IgG (PAP complex) (rabbit; horseradish) (UniProt P00433); test: competition reverse ELISA: PAP pre-incubated with peptide, residual PAP binding to wt SOD1-coated plate (competitor: immobilized wt SOD1)

Sequence of preformed immune complex of peroxidase-rabbit anti-peroxidase IgG (PAP complex) (rabbit; horseradish) (P00433 31-338, one chain of several): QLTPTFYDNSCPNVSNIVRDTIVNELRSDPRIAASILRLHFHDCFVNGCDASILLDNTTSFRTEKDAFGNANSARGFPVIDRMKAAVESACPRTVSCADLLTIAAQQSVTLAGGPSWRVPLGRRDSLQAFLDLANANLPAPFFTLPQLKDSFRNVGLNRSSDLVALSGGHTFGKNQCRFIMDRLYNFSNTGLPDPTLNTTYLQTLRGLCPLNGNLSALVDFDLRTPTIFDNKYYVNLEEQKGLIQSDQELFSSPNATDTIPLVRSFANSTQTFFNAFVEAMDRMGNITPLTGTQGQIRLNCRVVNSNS
Sequence of human C1q (Quidel Corp.) (human) (P02745 23-245 limits assumed, chain 1 of 3): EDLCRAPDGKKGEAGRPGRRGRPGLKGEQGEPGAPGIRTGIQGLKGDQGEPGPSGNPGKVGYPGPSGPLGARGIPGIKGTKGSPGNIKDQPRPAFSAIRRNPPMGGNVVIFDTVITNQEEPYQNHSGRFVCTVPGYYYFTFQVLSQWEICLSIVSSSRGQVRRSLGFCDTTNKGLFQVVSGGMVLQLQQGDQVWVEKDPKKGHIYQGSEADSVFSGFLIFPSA
Sequence of human C1q (Quidel Corp.) (human) (P02746 28-253 limits assumed, chain 2 of 3, further chain): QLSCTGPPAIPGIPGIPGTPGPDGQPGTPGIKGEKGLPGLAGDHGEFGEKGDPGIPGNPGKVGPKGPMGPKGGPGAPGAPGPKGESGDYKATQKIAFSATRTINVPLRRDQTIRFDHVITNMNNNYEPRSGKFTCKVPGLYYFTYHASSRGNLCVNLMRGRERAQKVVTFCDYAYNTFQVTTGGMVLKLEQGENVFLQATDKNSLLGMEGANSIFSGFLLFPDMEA
Sequence of human C1q (Quidel Corp.) (human) (P02747 29-245 limits assumed, chain 3 of 3, further chain): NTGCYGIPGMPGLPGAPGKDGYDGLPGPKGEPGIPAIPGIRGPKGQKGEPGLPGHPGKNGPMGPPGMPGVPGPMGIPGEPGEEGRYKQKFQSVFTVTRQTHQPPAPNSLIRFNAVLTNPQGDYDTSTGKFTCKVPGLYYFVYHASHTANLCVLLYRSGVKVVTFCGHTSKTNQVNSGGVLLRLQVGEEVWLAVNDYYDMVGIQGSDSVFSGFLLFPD
Sequence of FcγIIa (highly purified) (P12318 34-317): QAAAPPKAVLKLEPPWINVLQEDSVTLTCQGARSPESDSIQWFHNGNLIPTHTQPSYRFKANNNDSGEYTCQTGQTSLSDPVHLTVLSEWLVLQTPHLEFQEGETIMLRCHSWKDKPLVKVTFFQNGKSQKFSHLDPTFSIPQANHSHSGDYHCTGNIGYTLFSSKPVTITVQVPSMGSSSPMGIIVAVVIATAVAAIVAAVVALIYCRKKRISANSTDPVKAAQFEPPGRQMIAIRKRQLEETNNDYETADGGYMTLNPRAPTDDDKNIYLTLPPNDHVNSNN
Sequence of FcγIIb (highly purified) (P31994 43-310): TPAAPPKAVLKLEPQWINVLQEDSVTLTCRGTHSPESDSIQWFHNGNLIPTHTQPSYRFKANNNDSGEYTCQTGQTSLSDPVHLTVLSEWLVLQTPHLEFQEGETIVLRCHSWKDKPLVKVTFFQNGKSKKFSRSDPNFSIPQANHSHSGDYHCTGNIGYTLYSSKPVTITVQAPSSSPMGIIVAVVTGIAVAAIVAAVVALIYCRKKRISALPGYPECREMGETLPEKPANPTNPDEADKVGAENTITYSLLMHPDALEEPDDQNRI

Molecule	FcγIII (OD read at 405 nm) (FcγIII)	FcγIIb (OD read at 405 nm) (FcγIIb)	FcγIIa (OD read at 405 nm) (FcγIIa)	OD 405 nm (human C1q)	OD 405 nm [3] [OD 405 nm]	OD 405 nm [4] [OD 405 nm]	OD 405 nm [5] [OD 405 nm]	OD 405 nm [6] [OD 405 nm]	other results
APPCAFHLGELVWCT (not fully specified; cysteine pairing not given here) [SEQ ID NO:15]	0.880	0.380	0.605	0.983					
APPCARHLGELVWCT [SEQ ID NO:14]	0.709	0.768	0.956	0.567					inhibition of C1q binding (in words) (human C1q): next best result
APPCAWHLGELVWCT [SEQ ID NO:13]	0.530	0.562	0.658	1.148					
Ala-Pro-Pro-Asp-Cys-Ala-Trp-His-Leu-Gly-Glu-Leu-Val-Trp-Cys-Thr (APPDCAWHLGELVWCT) [SEQ ID NO:16]	0.670	0.496	0.509	0.389					inhibition of FcR binding to PAP (in words) (FcR): greatest inhibition; mSOD1C57S (OD read at 405 nm) [1]: 0.226; inhibition of mSOD1C57S binding to PAP (in words) [1]: greatest inhibition; inhibition of mSOD1C57S binding to PAP (in words) ([1]; listed as 16): best inhibition; wt SOD1 (OD read at 405 nm) (human wtSOD1): 0.277; inhibition of wt SOD1 binding to PAP (in words) (human wtSOD1): greatest inhibition; inhibition of wt SOD1 binding to PAP (in words) (human wtSOD1; listed as 16): best inhibition; ΔΔG, disruption of binding (IgG Fc): ≥ 1.5 kcal/mol; inhibition of C1q binding (in words) (human C1q): greatest inhibition
Asp-Cys-Ala-Phe-His-Leu-Gly-Glu-Leu-Val-Trp-Cys-Thr (DCAFHLGELVWCT) [SEQ ID NO:3]	0.810	0.510	0.660	0.859					
Asp-Cys-Ala-Trp-His-Leu-Gly-Glu-Leu-Val-Trp-Cys-Thr [SEQ ID NO:2]	0.741	0.532	0.561	1.100					mSOD1C57S (OD read at 405 nm) [1]: 0.592; inhibition of mSOD1C57S binding to PAP (in words) ([1]; listed as 2): inhibited; wt SOD1 (OD read at 405 nm) (human wtSOD1): 0.292; inhibition of wt SOD1 binding to PAP (in words) (human wtSOD1; listed as 2): inhibited
preformed immune complex of peroxidase-rabbit anti-peroxidase IgG (PAP complex) (from UniProt P00433 31-338) (antibody)									OD 405 nm (FcγIII (highly purified)): 1.59 OD 405 nm; OD 405 nm [2]: 2.35 OD 405 nm; OD 405 nm (FcγIIb (highly purified)): 1.39 OD 405 nm; OD 405 nm (FcγIIa (highly purified)): 1.6 OD 405 nm
B1					0.567	0.768	0.956	0.709	
B2					0.859	0.51	0.66	0.81	
B3					0.389	0.496	0.509	0.67	OD 405 nm [7]: 0.226 OD 405 nm; OD 405 nm [8]: 0.277 OD 405 nm
B4					0.983	0.38	0.605	0.88	
B5					1.15	0.562	0.658	0.53	
